Earlier results as cited in patent US7083802B2, “Treatment of ocular disease” (Advanced Ocular Systems Limited, priority 2003, dated 2006).

Assays:
[1] = reported in co-pending application Ser. No. 10/247,220

SMILES: C=CC[C@@H]1/C=C(\C)C[C@H](C)C[C@H](OC)[C@H]2O[C@@](O)(C(=O)C(=O)N3CCCC[C@H]3C(=O)O[C@H](/C(C)=C/[C@@H]3CC[C@@H](O)[C@H](OC)C3)[C@H](C)[C@@H](O)CC1=O)[C@H](C)C[C@@H]2OC [tacrolimus]
- Dose for administration without substantial toxicity [1]: 250 µg
- Clinical effect in atopic dermatitis (topical, doses 0.03%–0.3%, after 2–3 weeks treatment): significant clinical improvement
- Adverse effects of topical administration versus control (treatment of dermatoses, concentrations up to 0.3%): no significant difference in effects between treated and control groups
